From publication PMC10970593, “Jozimine A2, a Dimeric Naphthylisoquinoline (NIQ) Alkaloid, Shows In Vitro Cytotoxic Effects against Leukemia Cells through NF-κB Inhibition” (International Journal of Molecular Sciences, 2024)
Read-outs that look alike come from different tables or passages of the source.

Target: T1, NF-κB (human recombinant; p65 subunit used in docking) (Homo sapiens, UniProt Q04206)
T1 construct: gene RELA; human recombinant NF-κB protein, Sino Biological cat; No. 12054-H09E
Assay: microscale thermophoresis with labeled recombinant protein
Type: binding

How did the Kd (read-out: Kd) turn out when COc1cccc2c(-c3ccc4c(c3O)[C@@H](C)N[C@H](C)C4)c(C)c(-c3c(C)c(-c4ccc5c(c4O)[C@@H](C)N[C@H](C)C5)c4cccc(OC)c4c3O)c(O)c12 [jozimine A2] was run?
Its Kd is 1660 ± 12 nM.

How did the Kd turn out when COc1cc(C)cc2c(-c3c(O)cc(O)c4c3C[C@@H](C)N[C@@H]4C)cc(-c3cc(-c4c(O)cc(O)c5c4C[C@@H](C)N[C@@H]5C)c4cc(C)cc(OC)c4c3O)c(O)c12 [michellamine B] was run?
The Kd was 2800 ± 94 nM.
